According to patent US11766470B2, “Manufacture, formulation and dosing of apraglutide” (VectivBio AG, priority 2020, dated 2023):
Where “and” joins values, the source holds several entries; their conditions need not be identical. Equal values may be shown once. Read-outs that look alike come from different tables or passages of the source. Marks after values point to notes of the source that are not given here. Square brackets hold non-standard residues; d marks the D form. Peptide text beside a SMILES is read from it. ξ: configuration not given here. Ile(3ξ) = CCC(C)[C@H](N)C(=O)O; Thr(3ξ) = CC(O)[C@H](N)C(=O)O; Nle = CCCC[C@H](N)C(=O)O

Assays:
[1] = Phase I trial, single subcutaneous 5 mg dose in subjects with severe renal impairment vs normal renal function (Example 10), pharmacokinetics; format: in vivo, human; conditions: for Geometric mean ratio for AUCinf, severe renal impairment vs normal renal function / Geometric mean ratio for Cmax, severe renal impairment vs normal renal function: single SC 5 mg; for Geometric Mean Ratio of AUCinf / Geometric Mean Ratio of Cmax: single subcutaneous dose 5 mg apraglutide, severe renal impairment (Cohort 1) vs normal renal function (Cohort 2)
Description: The following non-limiting example describes a Phase I clinical trial in which subjects with normal and impaired kidney function are treated with the apraglutide formulations of the present disclosure. This Phase I clinical trial investigates the pharmacokinetics and safety of a single subcutaneous dose of 5 mg apraglutide in subjects with varying degrees of renal function. The renal function is calculated by the estimated glomerular filtration rate (eGFR) according to the Chronic Kidney Disease Epidemiology (CKD-EPI) Creatinine Equation.
The trial is a two-stage, open label, multi-center, non-randomized, Phase I trial. In Part 1 of the trial, 8 subjects with severe renal impairment (Cohort 1) and 6 subjects with normal renal function (Cohort 2) will be administered a single dose 5 mg apraglutide of the present disclosure. In Part 2 of the trial, 8 subjects with moderate renal impairment (Cohort 3) and 8 subjects with mild renal impairment (Cohort 4) will be administered a single dose 5 mg apraglutide of the present disclosure. Subjects will be enrolled if the geometric mean ratio (GMR) of AUCinf or AUClast for the severe renal impairment group compared to the control group is ≥2.
Patient eligibility is assessed during a screening visit. The main inclusion criteria are: • 1. All Participants • a. Age between 18 and 75 years inclusive • b. Subjects who are willing and able to comply with the study procedures • c. Subjects able to understand and willing to sign the informed consent • d. Body mass index (BMI) of ≥17.5 to ≤40 kg/m2; and a total body weight of >50 kg (110 lb). • e. […] Sterilized or infertile or postmenopausal females. • f. […] Healthy participants • a. No clinically relevant abnormalities (medical history, vital signs, ECG, safety labs) • b. eGFR measured by CKD-EPI≥90 mL/min/1.73 m2 at two screening visits • c. […] Participants with impaired renal function • a. Severe renal impairment: eGFR<30 mL/min/1.73 m2, but not requiring hemodialysis • b. Moderate renal impairment: eGFR≥30 mL/min/1.73 m2 and <60 mL/min/1.73 m2 • c. Mild renal impairment: eGFR≥60 and <90 mL/min/1.73 m2
Primary endpoint efficacy assessments will be performed at 240 hours after single dose. […] Secondary endpoint efficacy assessments will be performed at 240 hours, 7 days, 14 days, and 28 days. Primary and secondary endpoints will be evaluated across all subjects.
The secondary endpoints to be evaluated, include, but are not limited to: • 1. Area under the concentration-time curve up to the last measurable concentration from time 0 to 7 days (AUC0-7days). Samples collected over 168 hours after single dose • 2. Time to maximum concentration (Tmax). Samples collected over 240 hours after single dose • 3. Terminal elimination rate constant. Samples collected over 240 hours after single dose • 4. Terminal elimination half-life. Samples collected over 240 hours after single dose • 5. Apparent clearance after extravascular administration (CL/F). Samples collected over 240 hours after single dose • 6. Apparent volume of distribution after extravascular administration (Vz/F). Samples collected over 240 hours after single dose • 7. Number of participants with adverse events or adverse events of special interest at days 14-28 • 8. Clinically significant change from baseline in vital signs at days 14-28 • 9. Clinically significant change from baseline in recorded triplicate 12-lead ECG at days 14-28 • 10. Number of participants who experience a clinically significant change from baseline in clinical laboratory assessments at days 14-28
The plasma concentration of apraglutide after administration of a single subcutaneous dose of 5 mg apraglutide was monitored over a period of 240 hours in both healthy subjects (Cohort 2) and subjects with severe CKD (Cohort 1) and is presented in FIG. 29.
Two outliers were identified (one in each Cohort) when analyzing the individual apraglutide plasma concentration curves. […]

[2] = tested on: patients with SBS-IF or SBS-II; conditions: in vivo
Description: Patients were treated with once weekly 5 mg apraglutide for four weeks. Apraglutide was provided as a freeze-dried powder for reconstitution in sterile water prior to injection, and treatments were administered as subcutaneous injections in the abdominal area. A 72-hour metabolic balance study was performed at baseline and at the end of the treatment period (starting one day after the fourth and last apraglutide injection). Each 72-hour metabolic balance study was performed during a five-day hospital admission. On the day of admission, patients were instructed to create a 24-hour drinking menu based on their habitual oral fluid intake. The drinking menu was to be followed during each balance study. On the second day of admission, just after the patients had urinated and emptied their stoma bags or defecated, the balance study was initiated. […] Daily PS and compliance to the predefined drinking menu was documented during admissions.
First, second and fourth apraglutide injections were performed at the hospital. Safety assessments included observation for injection site reactions, vital signs, blood samples, electrocardiogram (ECG), urinalysis and body weight. They were performed at baseline, during each injection of the trial drug, four days after first injection, at the end of treatment and 4-6 weeks after last dosing at the end of the trial, as shown in Table 20. Liver enzymes were measured prior to each drug administration.

[3] = human, in vivo
Description: (§1) 23 healthy adult volunteers received 6 weekly subcutaneous doses of apraglutide (1, 5, or 10 mg) or placebo and were followed for a further 6 weeks after the last dose. Blood collections were controlled for diet, lifestyle, and diurnal effects. […] PK data underwent non-compartmental analysis and PD data were analyzed by ANCOVA.
(§2) As with citrulline, a statistical steady-state analysis per dose level was performed for apraglutide using Helmert's approach.

[4] = Multiple dose study in healthy volunteers (Examples 4 and 7), pharmacokinetics of plasma apraglutide, non-compartmental analysis; conditions: for CL/F / AUC(0-t) / half-life / Cmax / Tmax / Vd/F: human, plasma
Description: as §1, §2

[5] = cohort without the two outliers

CCCC[C@H](NC(=O)[C@H](CCC(=O)O)NC(=O)[C@H](CC(=O)O)NC(=O)[C@H](CO)NC(=O)[C@H](Cc1ccccc1)NC(=O)[C@H](CO)NC(=O)CNC(=O)[C@H](CC(=O)O)NC(=O)CNC(=O)[C@@H](N)Cc1c[nH]cn1)C(=O)N[C@H](Cc1ccccc1)C(=O)N[C@H](C(=O)N[C@H](C(=O)N[C@@H](CC(C)C)C(=O)N[C@@H](CC(=O)O)C(=O)N[C@@H](CC(C)C)C(=O)N[C@@H](CC(C)C)C(=O)N[C@@H](C)C(=O)N[C@@H](C)C(=O)N[C@@H](CCCNC(=N)N)C(=O)N[C@@H](CC(=O)O)C(=O)N[C@@H](Cc1ccccc1)C(=O)N[C@H](C(=O)N[C@@H](CC(N)=O)C(=O)N[C@@H](Cc1c[nH]c2ccccc12)C(=O)N[C@@H](CC(C)C)C(=O)N[C@H](C(=O)N[C@@H](CCC(N)=O)C(=O)N[C@H](C(=O)N[C@@H](CCCCN)C(=O)N[C@H](C(=O)N[C@H](C(=O)N[C@@H](CC(=O)O)C(N)=O)C(C)O)C(C)CC)C(C)O)C(C)CC)C(C)CC)C(C)CC)C(C)O (stereo partly drawn) [apraglutide, L-histidyl-glycyl-L-aspartyl-glycyl-L-seryl-L-phenylalanyl-L-seryl-L-aspartyl-L-glutamyl-L-norleucyl-D-phenylalanyl-L-threonyl-Lisoleucyl-L-leucyl-L-aspartyl-L-leucyl-L-leucyl-L-alanyl-L-alanyl-L-arginyl-L-aspartyl-L-phenylalanyl-L-isoleucyl-L-asparaginyl-Ltryptophanyl-L-leucyl-L-isoleucyl-L-glutaminyl-L-threonyl-L-lysyl-L-isoleucyl-L-threonyl-Laspartic acid amide] (H-HGDGSFSDE[Nle][dF][Thr(3ξ)][Ile(3ξ)]LDLLAARDF[Ile(3ξ)]NWL[Ile(3ξ)]Q[Thr(3ξ)]K[Ile(3ξ)][Thr(3ξ)]D-NH2)
Geometric mean ratio for AUCinf, severe renal impairment vs normal renal function ([1]; entire subject population): 0.614 | Geometric mean ratio for Cmax, severe renal impairment vs normal renal function ([1]; entire subject population): 0.572 | Geometric mean ratio for AUCinf, severe renal impairment vs normal renal function ([1]; outlier subjects removed): 0.849 | Geometric mean ratio for Cmax, severe renal impairment vs normal renal function ([1]; outlier subjects removed): 0.774 | Geometric Mean Ratio of AUCinf [1, 5]: 0.849 | Geometric Mean Ratio of Cmax [1, 5]: 0.774 | Geometric Mean Ratio of AUCinf ([1]; whole cohort): 0.614 | Geometric Mean Ratio of Cmax ([1]; whole cohort): 0.572 | Deaths [2]: no deaths occurred | Quantifiable concentration in the last pharmacokinetic sample (2 weeks after last dose) [3]: up to 4.46 ng/mL | CL/F, arithmetic mean ± SD ([3]; 5 mg): 16.480 L/day | CL/F, arithmetic mean ± SD ([3]; 10 mg): 20.747 L/day | 1st Ctrough, arithmetic mean ± SD ([4]; 1 mg): 0.000 ng/mL and 0.000 ± 0.000 ng/mL | 4th Ctrough, arithmetic mean ± SD ([4]; 1 mg): 0.873 ng/mL | AUCtau, arithmetic mean ± SD ([4]; 1 mg, (first dose)): 35.214 ng·days/mL | AUCtau/dose, Arithmetic mean ± standard deviation ([4]; 1 mg, (first dose)): 0.03037 ± 152.1 ng·days/mL/µg | AUCtau/dose, Arithmetic mean ± standard deviation ([4]; 1 mg, dose #6): 0.05813 ± 23.1 ng·days/mL/µg | 4th Ctrough, arithmetic mean ± SD ([4]; 5 mg): 10.163 ng/mL | 5th Ctrough, arithmetic mean ± SD ([4]; 5 mg): 7.605 ng/mL | AUCtau, arithmetic mean ± SD ([4]; 5 mg, (first dose)): 300.269 ng·days/mL | AUCtau/dose, Arithmetic mean ± standard deviation ([4]; 5 mg, (first dose)): 0.05407 ± 47.1 ng·days/mL/µg | AUCtau/dose, Arithmetic mean ± standard deviation ([4]; 5 mg, dose #6): 0.06595 ± 47.2 ng·days/mL/µg | Lambda_Z, Arithmetic mean ± standard deviation ([4]; 5 mg, dose #6 (N = 4)): 0.2384 ± 36.6** 1/d | Lambda_Z, arithmetic mean ± SD ([4]; 5 mg, dose #6 (N = 4)): 0.2508 ± 0.09871** 1/d | 2nd Ctrough, arithmetic mean ± SD ([4]; 10 mg): 18.460 ng/mL | 6th Ctrough, arithmetic mean ± SD ([4]; 10 mg): 13.710 ng/mL | AUCtau, arithmetic mean ± SD ([4]; 10 mg, (first dose)): 476.937 ng·days/mL | AUCtau/dose, Arithmetic mean ± standard deviation ([4]; 10 mg, (first dose)): 0.04291 ± 47.6 ng·days/mL/µg | Steady-state contrast: mean Ctrough over week 3 to 6 against week 2 ([4]; 10 mg, Helmert's approach): −3.616 | Lambda_Z, arithmetic mean ± SD ([4]; 10 mg, dose #6): 0.2463 ± 0.09975 day⁻¹ | AUCtau/dose, Arithmetic mean ± standard deviation ([4]; 10 mg, dose #6 (N = 5)): 0.05288 ± 52.4 ng·days/mL/µg | Lambda_Z, Arithmetic mean ± standard deviation ([4]; 10 mg, dose #6 (N = 5)): 0.231 ± 41.3* 1/d | Kinetics over the 1 to 10 mg dose range, in words ([4]; dose-normalized Cmax and AUCtau): follows linear kinetics | CL/F ([4]; sc, 1 mg): 11.9 mL/min | AUC(0-t) ([4]; sc, 1 mg, AUClast, Arithmetic mean ± standard deviation, dose #6): 1310 ng·h/mL | AUC(0-t) ([4]; sc, 1 mg, AUClast, arithmetic mean ± SD, dose #6): 1360 ng·h/mL | AUC(0-t) ([4]; sc, 1 mg, AUCtau, arithmetic mean ± SD, (first dose)): 845 ng·h/mL | CL/F ([4]; sc, 5 mg): 10.5 mL/min | AUC(0-t) ([4]; sc, 5 mg, AUClast, Arithmetic mean ± standard deviation, dose #6): 8500 ng·h/mL | AUC(0-t) ([4]; sc, 5 mg, AUClast, arithmetic mean ± SD, dose #6): 9170 ng·h/mL | AUC(0-t) ([4]; sc, 5 mg, AUCtau, arithmetic mean ± SD, (first dose)): 7210 ng·h/mL | CL/F ([4]; sc, 10 mg): 13.1 mL/min | AUC(0-t) ([4]; sc, 10 mg, AUClast, Arithmetic mean ± standard deviation, dose #6 (N = 5)): 13800 ng·h/mL | AUC(0-t) ([4]; sc, 10 mg, AUCtau, arithmetic mean ± SD, (first dose)): 11400 ng·h/mL | half-life ([4]; sc, 10 mg, Half-life indicated by PK parameters, healthy volunteers, 6 weekly SC doses of 1, 5 or 10 mg): 72 h | Cmax ([4]; subcutaneous, 1 mg, arithmetic mean ± SD, (first dose)): 13.9 ± 11.2 ng/mL | Cmax ([4]; subcutaneous, 1 mg, arithmetic mean ± SD, dose #6): 24.2 ± 9.22 ng/mL | Cmax ([4]; subcutaneous, 1 mg, geometric mean (geometric coefficient of variation %), (first dose)): 12.3 ± 146 ng/mL | Tmax ([4]; subcutaneous, 1 mg, tmax at dose 1 and 6, 1 mg): ~24 h | Tmax ([4]; subcutaneous, 1 mg, tmax, median, (first dose)): 24 h | Tmax ([4]; subcutaneous, 1 mg, tmax, median, dose #6): 21.6 h | Vd/F ([4]; subcutaneous, 5 mg): 50.2 ± 61 L | Cmax ([4]; subcutaneous, 5 mg, arithmetic mean ± SD, (first dose)): 94.1 ± 50.5 ng/mL | Cmax ([4]; subcutaneous, 5 mg, arithmetic mean ± SD, dose #6): 125 ± 72.1 ng/mL | Cmax ([4]; subcutaneous, 5 mg, geometric mean (geometric coefficient of variation %), (first dose)): 84.1 ± 55.1 ng/mL | Cmax ([4]; subcutaneous, 5 mg, geometric mean (geometric coefficient of variation %), dose #6): 108 ± 64.6 ng/mL | half-life ([4]; subcutaneous, 5 mg, Half life, 5 mg, following dose #6): 72.7 ± 23 h | half-life ([4]; subcutaneous, 5 mg, t1/2, lower section headed Arithmetic mean ± standard deviation, dose #6 (N = 4)): 69.8 h | Tmax ([4]; subcutaneous, 5 mg, tmax at dose 1 and 6, 5 mg): ~24 h | Tmax ([4]; subcutaneous, 5 mg, tmax, median, (first dose)): 24 h | Tmax ([4]; subcutaneous, 5 mg, tmax, median, dose #6): 24 h | Vd/F ([4]; subcutaneous, 10 mg): 81.9 ± 98.6 L | Cmax ([4]; subcutaneous, 10 mg, arithmetic mean ± SD, (first dose)): 137 ± 55 ng/mL | Cmax ([4]; subcutaneous, 10 mg, arithmetic mean ± SD, dose #6): 182 ± 97.6 ng/mL | Cmax ([4]; subcutaneous, 10 mg, geometric mean (geometric coefficient of variation %), (first dose)): 128 ± 39.9 ng/mL | half-life ([4]; subcutaneous, 10 mg, Half life, 10 mg, following dose #6): 76.3 ± 27.6 h | half-life ([4]; subcutaneous, 10 mg, t1/2, lower section headed Arithmetic mean ± standard deviation, dose #6 (N = 5)): 72 h | Tmax ([4]; subcutaneous, 10 mg, tmax at dose 1 and 6, 10 mg): ~48 h | Tmax ([4]; subcutaneous, 10 mg, tmax, median, (first dose)): 45.6 h | Tmax ([4]; subcutaneous, 10 mg, tmax, median, dose #6): 45.6 h
